According to patent US20250205300A1, “PLANT-BASED COMPOSITIONS AND METHODS FOR HORMONE SIGNALING, BLOOD GLUCOSE CONTROL, APPETITE CONTROL, AND WEIGHT MANAGEMENT” (Alpine Biotech, LLC, priority 2023, published 2025):

Key:
[1] = tested on: Human NCI-H716 cells; test: Secretion of GLP-1 in Human NCI-H716 cells (FIG. 1); format: cell-based
From the text: FIG. 1 is a graph illustrating the effects of compositions in Human NCI-H716 cells according to an implementation.

[2] = tested on: preclinical diabetes model; test: Plasma GLP-1 levels in preclinical diabetes model (FIG. 2); format: in vivo

Compound | secretion of GLP-1 [1] | plasma GLP-1 levels [2]
O=C(O[C@@H]1Cc2c(O)cc(O)cc2O[C@@H]1c1cc(O)c(O)c(O)c1)c1cc(O)c(O)c(O)c1 [epigallocatechin gallate] | modulate the secretion of GLP-1 to various degrees | 
COc1ccc2cc3[n+](cc2c1OC)CCc1cc2c(cc1-3)OCO2 [Berberine] | modulate the secretion of GLP-1 to various degrees | modulate plasmas GLP-1 levels
CC/C=C\C/C=C\C/C=C\CCCCCCCC(=O)O [α-linolenic acid] | modulate the secretion of GLP-1 to various degrees | modulate plasmas GLP-1 levels
